Data on two molecules can be found in patent publication US7091351B2, “Vanadium compounds for treating cancer” (Parker Hughes Institute, priority 1998, dated 2006).

The subject of data set [1] is Tera-2 testicular cancer cells. Description: MTT cytotoxicity assay of vanadocenes, TERA-2 cells. The data set is classed as cell-based, human. The note with it: 24 h, 1.9-250 μM. Summed up:
(§1)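 IC50 values come from MTT colorimetry (540 nm) after 24 h drug treatment at 1.9–250 μM in two-fold steps, started 24 h post-seeding. Formazan formed over 4 h at 37 °C and was solubilized overnight in 10% SDS/0.1% HCl; triplicate wells, 0.25% DMSO solvent control.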
Background: Formazan colour is commonly taken as a measure of viable cells.

The subject of data set [2] is Ntera-2 testicular cancer cells. Description: MTT cytotoxicity assay of vanadocenes, NTERA-2 cells. It counts as cell-based, human. The note with it: 24 h, 1.9-250 μM. Summed up: as §1
The test system of data set [3] is Tera-2 and Ntera-2 human testicular cancer cell lines. Description: MTT cytotoxicity assay, text statements for both testicular cancer cell lines. The note with it: Tera-2 and Ntera-2, tested side-by-side, up to 250 μM; read-out: IC50 (cytotoxicity, two testicular cancer cell lines). It counts as cell-based.
Experimental: Human testicular cancer cell lines, Tera-2 (embryonal carcinoma) and Ntera-2 (pluripotent embryonal carcinoma) were obtained from the American Type Culture Collection (ATCC) (Rockeville, Md.) and propagated in T-25, T-75, or T-150 cm^2 tissue culture flasks (Corning Corp., Corning, N.Y.) in McCoy's 5A medium and Dulbecco's modified Eagle's medium respectively. Both media were supplemented with 10% fetal calf serum (FCS), 4 mM glutamine, 100 U/ml penicillin G, and 100 mg/ml streptomycin sulfate. All tissue culture reagents were obtained from Life Technologies Inc. (GIBCO-BRL), Gaithersburg, Md. Cell lines were cultivated for a minimum of two passages after thawing prior to experimentation.
MTT (3-[4,5-dimethyl thiazol-2-yl]-2,5-diphenyltetrazolium bromide)-based colorimetric assays were used for evaluation of the cytotoxicity of vanadocene compounds. […] Briefly, cells were harvested with 0.125% (w/v) trypsin-0.02% EDTA (GIBCO-BRL) from exponential-phase maintenance cultures and centrifuged (300 g×5 min). After suspension and counting, cells were dispensed within triplicate 96-well tissue culture plates in 100 μl volumes. […] After an overnight incubation at 37° C., the optical densities at 540 nm were measured using a 96-well multiscanner autoreader, with the solubilization buffer serving as blank. All assays were run in triplicate and results were expressed as IC50 values.
For data set [4], the system named is NALM-6 cells. In words: MTT cytotoxicity assay of oxovanadium(IV) compounds, NALM-6. It counts as cell-based, human. The note with it: 48 hr. On the procedure:
(§2) The cytotoxicity of oxovanadium (W) complexes listed in Table 6 were tested against 9 different human cancer cell lines was performed using the MTT (3-[4,5-dimethylthiazol-2-yl]-2,5-diphenyl tetrazolium bromide) assay (Boehringer Mannheim Corp., Indianapolis, Ind.) as described previously (20). Briefly, exponentially growing tumor cells were seeded into a 96-well plate at a density of 4×10^4cells/well and incubated with medium containing the oxovanadium(IV) compounds concentrations ranging from 0.1 to 250 μM for 48 hours at 37° C. in a humidified 5% CO2 atmosphere. Triplicate wells were used for each treatment. To each well, 10 μl of MTT (0.5 mg/ml final concentration) was added and the plates were incubated at 37° C. for 4 hours to allow MTT to form formazan crystals by reacting with metabolically active cells . The formazan crystals were solubilized overnight at 37° C. in a solution containing 10% SDS in 0.01 M HCl. The absorbence of each well was measured in a microplate reader (Labsystems) at 540 nm and a reference wavelength of 690 nm. To translate the OD540 values into the number of live cells in each well, the OD540 values were compared to those on standard OD540—versus—cell number curves generated for each cell line. The percent survival was calculated using the formula: % survival=Live cell number[test]/Live cell number [control]×100. The IC50 values were calculated by non-linear regression analysis using an Graphpad Prism software version 2.0 (Graphpad Software, Inc., San Diego, Calif.).

Another data set concerns HL-60 cells. Description: MTT cytotoxicity assay of oxovanadium(IV) compounds, HL-60. The data set is classed as cell-based, human. The note with it: 48 hr. On the procedure:
as §2

In a further data set the test system is HS-SULTAN cells. Description: In situ detection of apoptosis, confocal microscopy, HS-SULTAN. It counts as cell-based, human. The note with it: 48 hours after treatment. On the procedure: (§3) Exponentially growing cells were seeded in 6-well tissue culture plates and incubated with fresh medium containing compounds. […] The cells were fixed in 2% paraformaldehyde, washed with PBS and pelleted by centrifuging the tubes at 1000 rpm for 5 min. Cells pellets were resuspended in 50 μl of PBS, transferred to superforst plus slides and allowed to attach for 15 min. The cells were permeabilized with 0.1% triton X-100 in 0.1% citrate buffer and incubated for 1 hr at 37° C. with the reaction mixture containing terminal deoxynucleotidyl transferase (TdT) and fluorescein isothiocyanate (FITC)-conjugated dUTP. Cells were washed with PBS to remove unbound reagents and the coverslips were mounted onto slides with Vectashield containing propidium iodide (Vector Labs, Burlingame, Calif.) and slides were viewed with a confocal laser scanning microscope. […] In control reactions, the TdT enzyme was omitted from the reaction mixture.

The test system of data set [5] is U266BL multiple myeloma cells. Description: MTT cytotoxicity assay of oxovanadium(IV) compounds, U266BL. It counts as cell-based, human. The note with it: 48 hr. Here is the method: as §2
Data set [6] has as its system HS-SULTAN multiple myeloma cells. Description: MTT cytotoxicity assay of oxovanadium(IV) compounds, HS-SULTAN. It counts as cell-based, human. The note with it: 48 hr. On the procedure:
as §2

In data set [7] the test system is NTD1 testicular cancer cells. Description: Cytotoxic activity of oxovanadium(IV) compounds, NTD1. The note with it: read-out: Cytotoxic Activity NTD1. It counts as cell-based, human. On the procedure: as §2
The subject of data set [8] is ARH77 multiple myeloma cells. Description: MTT cytotoxicity assay of oxovanadium(IV) compounds, ARH77. It counts as cell-based, human. The note with it: 48 hr. Here is the method:
as §2, with “Briefly, exponentially growing tumor cells were seeded into a 96-well plate at a density of 4×10^4cells/well and incubated with medium containing the oxovanadium(IV) compounds concentrations ranging from 0.1 to 250 μM for 48 hours at 37° C. in a humidified 5% CO2 atmosphere.” left out

Data set [9] has as its system Tera-2 testicular cancer cells. Description: Cytotoxic activity of oxovanadium(IV) compounds, TERA-2. It counts as cell-based, human. The note with it: read-out: Cytotoxic Activity TERA-2. Here is the method:
as §2

Data set [10] deals with HS445 Hodgkin's lymphoma cells. In words: MTT cytotoxicity assay of oxovanadium(IV) compounds, HS445. It counts as cell-based, human. The note with it: 48 hr. Here is the method: as §2
The test system of data set [11] is PC3 prostate cancer cells. In words: Cytotoxic activity of oxovanadium(IV) compounds, PC3. It counts as cell-based, human. The note with it: read-out: Cytotoxic Activity PC3. Here is the method:
as §2

The subject of data set [12] is 833-K testicular cancer cells. In words: Cytotoxic activity of oxovanadium(IV) compounds, 833-K. It counts as cell-based, human. The note with it: read-out: Cytotoxic Activity 833-K. On the procedure:
as §2

In another data set the test system is BT20 breast cancer cells. Description: Cytotoxic activity of oxovanadium(IV) compounds, BT20. It counts as cell-based, human. The note with it: read-out: Cytotoxic Activity BT20. On the procedure:
as §2

The subject of data set [13] is 64cp5 testicular cancer cells. Description: Cytotoxic activity of oxovanadium(IV) compounds, 64cp5. The note with it: read-out: Cytotoxic Activity 64cp5. It counts as cell-based, human. On the procedure: as §2
The test system of the next data set is U373 glioblastoma cells. In words: Cytotoxic activity of oxovanadium(IV) compounds, U373. It counts as cell-based, human. The note with it: read-out: Cytotoxic Activity U373. On the procedure: as §2
In a further data set the test system is MOLT-3 cells. Description: MTT cytotoxicity assay of oxovanadium(IV) compounds, MOLT-3. It counts as cell-based, human. The note with it: 48 hr. Here is the method: as §2
Data set [14] deals with NALM-6 cells. Description: In situ detection of apoptosis, confocal microscopy, NALM-6. The data set is classed as cell-based, human. The note with it: 48 hours after treatment. On the procedure:
as §3

For `O=S(=O)([O-])[O-].[O]=[V+2]` [VDSO4, vanadyl(IV) sulfate, reference compound], the IC50 in data set [1], in data set [2] and in data set [3] was greater than 250 µM throughout.
On to “(diaqua)(4,7-dimethyl-1,10-phenanthroline)oxovanadium(IV) sulfate [Compound 28]”, for which the IC50 was 0.78 ± 0.1 µM in the data set with NALM-6 cells [4]; 6.2 ± 2.3 µM with HL-60 cells; 1.3 ± 0.1 µM in [5]; 5.1 ± 1.02 µM in data set [6]; 12.8 µM in [7]; 8.1 ± 1.6 µM in data set [8]. Also, the IC50 in data set [9] was found to be 57.6 µM; in data set [10], 3.3 ± 1.4 µM; in data set [11], 5.8 µM; in [12], 6 µM; with BT20 breast cancer cells it was 2.1 µM; in data set [13], 15.2 µM. The IC50 with U373 glioblastoma cells came out at 2.2 µM; in the data set with MOLT-3 cells, 1.37 ± 0.07 µM. For the same molecule, in the data set with HS-SULTAN cells, the “apoptotic nuclei (FITC-dUTP / propidium iodide), HS-SULTAN” value was “many apoptotic yellow nuclei”. Also, in the data set on NALM-6 cells [14], the “apoptotic nuclei (FITC-dUTP / propidium iodide), NALM-6” value is recorded as “many apoptotic yellow nuclei”.
